Reference: patent US20250304551A1 (SHANGHAI APEIRON THERAPEUTICS COMPANY LIMITED, priority 2022, published 2025)

Tests used:
[1] = target: T1, Human KIF18A (amino acid sequence 1-417) (Homo sapiens, UniProt Q8NI77); test: Enzyme activity detection experiment (ADP-Glo, KIF18A with tubulin and ATP); assay type: biochemical; details: tubulin 60 μg/mL, ATP 25 μM, KIF18A protein 2.5 nM, 120 minutes at ambient temperature, ADP-Glo chemiluminescence
T1 construct: purchased Viva Biotech (Shanghai) Ltd
Summary of the method: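 KIF18A (2.5 nM) was incubated with tubulin (60 μg/mL as added), ATP (25 μM) and serially diluted compound for 120 min at ambient temperature. ADP formed was detected by ADP-Glo: reagent for 30 min, then detection reagent for 30 min in the dark, with chemiluminescence read-out.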

OVCAR3 cells = test: Cell proliferation activity test, OVCAR3 (CyQUANT Direct); assay type: cell-based; details: Homo sapiens, OVCAR-3, 72 h, 3 days incubation, CyQUANT fluorescence detection, read-out: OVCAR-3 Cell Viability_IC50_nM
Summary of the method: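 OVCAR3 cells seeded overnight, then exposed to compounds at 0-10 μM final (0.20% DMSO) for 3 days at 37° C. Cell number read by CyQUANT Direct fluorescence after 60 min at 37° C.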

HT29 cells = test: CyQuant cell proliferation activity test, HT29; assay type: cell-based; details: Homo sapiens, HT-29, 72 h, HT29 2000 cells per well, 3 days incubation, initial concentration 3000 nM, IC50 by XLFIT, read-out: HT-29 Cell Viability_IC50_nM
Summary of the method: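 HT29 cells (2000/well, RPMI-1640 with 10% FBS) were plated overnight, then exposed to compound for 3 days at 37 °C, 5% CO2. Dosing was 9 concentrations, 3-fold dilutions from 3000 nM, in 0.20% DMSO. Proliferation was read with CyQuant reagent after 1 h, and IC50 derived from the curves.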

T1 sequence (Q8NI77 1-417): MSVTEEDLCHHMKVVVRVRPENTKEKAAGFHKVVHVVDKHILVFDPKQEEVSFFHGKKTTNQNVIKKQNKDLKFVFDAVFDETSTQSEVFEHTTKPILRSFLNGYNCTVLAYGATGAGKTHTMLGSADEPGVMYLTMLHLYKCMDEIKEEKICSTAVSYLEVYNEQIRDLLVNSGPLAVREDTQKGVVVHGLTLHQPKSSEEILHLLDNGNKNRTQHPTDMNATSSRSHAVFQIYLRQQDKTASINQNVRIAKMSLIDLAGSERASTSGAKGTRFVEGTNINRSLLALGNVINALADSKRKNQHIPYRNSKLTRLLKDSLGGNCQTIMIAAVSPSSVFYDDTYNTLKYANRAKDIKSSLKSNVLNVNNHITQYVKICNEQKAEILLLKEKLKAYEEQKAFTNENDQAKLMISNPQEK
T1 sequence (Q2XVP4 whole entry partner): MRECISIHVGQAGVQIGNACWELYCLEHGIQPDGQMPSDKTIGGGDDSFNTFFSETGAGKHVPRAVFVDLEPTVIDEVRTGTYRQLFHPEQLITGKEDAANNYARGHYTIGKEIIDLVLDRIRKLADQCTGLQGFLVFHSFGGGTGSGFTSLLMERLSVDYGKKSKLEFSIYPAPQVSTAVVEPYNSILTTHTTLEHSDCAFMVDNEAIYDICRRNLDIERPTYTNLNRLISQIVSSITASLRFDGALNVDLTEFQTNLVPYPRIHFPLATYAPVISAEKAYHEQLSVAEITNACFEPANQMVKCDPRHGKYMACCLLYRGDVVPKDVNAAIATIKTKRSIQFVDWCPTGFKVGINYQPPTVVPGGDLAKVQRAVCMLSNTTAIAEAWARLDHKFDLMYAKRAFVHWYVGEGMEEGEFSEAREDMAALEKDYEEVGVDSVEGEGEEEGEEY
T1 sequence (P02554 whole entry partner): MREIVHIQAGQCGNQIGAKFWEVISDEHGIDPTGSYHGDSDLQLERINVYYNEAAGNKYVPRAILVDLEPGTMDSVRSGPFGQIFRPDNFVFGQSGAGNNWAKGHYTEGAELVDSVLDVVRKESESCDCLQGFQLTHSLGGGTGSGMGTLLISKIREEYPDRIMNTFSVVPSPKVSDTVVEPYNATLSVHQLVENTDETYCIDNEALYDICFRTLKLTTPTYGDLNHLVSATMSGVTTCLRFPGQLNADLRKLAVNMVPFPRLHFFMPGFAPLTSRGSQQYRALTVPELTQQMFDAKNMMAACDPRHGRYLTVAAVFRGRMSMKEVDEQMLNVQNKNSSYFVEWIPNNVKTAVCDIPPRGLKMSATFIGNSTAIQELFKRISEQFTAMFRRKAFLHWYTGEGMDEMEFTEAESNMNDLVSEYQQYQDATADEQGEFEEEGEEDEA

IC50 [1] [nM] | IC50 (OVCAR3 cells) [nM] | IC50 (HT29 cells) [nM] | Compound
22 | 14 | 12 | Cc1cc(-c2cn(-c3ccc(NS(=O)(=O)CCO)cc3N3CCC4(CC3)CC4)nn2)nc(N2C[C@@H](C)O[C@@H](C)C2)n1 [Example 44, N-(4-(4-(2-((2R,6S)-2,6-dimethylmorpholino)-6-methylpyrimidin-4-yl)-1H-1,2,3-triazol-1-yl)-3-(6-azaspiro[2.5]octan-6-yl)phenyl)-2-hydroxyethane-1-sulfonamide]
44 | 16 | 18 | Cc1cc(-c2cn(-c3ccc(NS(=O)(=O)CCO)cc3N3CCC4(CC3)CC4)nn2)nc(N2CCO[C@@H](C)C2)n1 [Example 43, (S)-2-hydroxy-N-(4-(4-(6-methyl-2-(2-methylmorpholino)pyrimidin-4-yl)-1H-1,2,3-triazol-1-yl)-3-(6-azaspiro[2.5]octan-6-yl)phenyl)ethane-1-sulfonamide]

Compound | IC50 [1] [nM] | IC50 (OVCAR3 cells) [nM] | IC50 (HT29 cells) [nM]
Cc1cc(-c2cn(-c3ccc(NS(=O)(=O)CCO)cc3N3CCC4(CC3)CC4)nn2)nc(N2C3CCC2COC3)n1 [Example 48, N-(4-(4-(2-(3-oxa-8-azabicyclo[3.2.1]octan-8-yl)-6-methylpyrimidin-4-yl)-1H-1,2,3-triazol-1-yl)-3-(6-azaspiro[2.5]octan-6-yl)phenyl)-2-hydroxyethane-1-sulfonamide] | 22 | 17 | 14
